According to PMC4404319 (ACS Chemical Neuroscience, 2015):
“Also recorded” adds a separate entry of the source.

Legend:
[1] = tested on: 166 GPCRs; assay: Functional GPCR agonist and antagonist screen, whole panel; assay type: cell-based; settings: agonist 12 500 nM, antagonist 10 000 nM
[2] = Chemical stability; assay type: physicochemical; settings: pH 1–13, 24 h, 37 °C
[3] = tested on: C57BL/6 mice; assay: Modified SHIRPA adverse pharmacology screen; assay type: in vivo; settings: 50 and 150 mg/kg, 24 h observation
[4] = in vivo; settings: male, Sprague-Dawley, rat, 5 mg/kg
[5] = in vitro; settings: rat, liver microsomes, pH 7.4
[6] = tested on: P-gp; assay: in vitro; settings: human, Caco-2
[7] = tested on: BCRP; assay: in vitro; settings: dog
[8] = tested on: Salmonella typhimurium TA98 and TA100; assay: Ames bacterial reverse mutation assay; settings: ± metabolic activation, up to 5 μg/plate
[9] = target: T1, MAO-A (Homo sapiens, UniProt P21397); assay: Monoamine oxidase inhibition; settings: 0.01–25 μM
T1 sequence (P21397 1-527): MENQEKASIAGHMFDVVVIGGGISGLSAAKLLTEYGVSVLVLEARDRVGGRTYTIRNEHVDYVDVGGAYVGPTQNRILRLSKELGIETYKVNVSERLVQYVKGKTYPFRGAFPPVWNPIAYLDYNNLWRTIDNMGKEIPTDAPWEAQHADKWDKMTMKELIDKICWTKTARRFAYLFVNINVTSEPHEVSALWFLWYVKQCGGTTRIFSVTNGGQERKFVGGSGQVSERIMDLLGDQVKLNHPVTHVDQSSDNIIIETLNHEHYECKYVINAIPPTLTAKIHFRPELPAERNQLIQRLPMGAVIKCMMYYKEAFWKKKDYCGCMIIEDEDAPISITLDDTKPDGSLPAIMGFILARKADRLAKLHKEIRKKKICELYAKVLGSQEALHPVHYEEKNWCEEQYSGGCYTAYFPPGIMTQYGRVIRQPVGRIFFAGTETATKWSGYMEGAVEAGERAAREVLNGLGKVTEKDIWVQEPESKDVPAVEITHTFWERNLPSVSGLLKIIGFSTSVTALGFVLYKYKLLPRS

[10] = target: T2, MAO-B (Homo sapiens, UniProt P27338); assay: Monoamine oxidase inhibition; settings: 0.01–25 μM
T2 sequence (P27338 1-520): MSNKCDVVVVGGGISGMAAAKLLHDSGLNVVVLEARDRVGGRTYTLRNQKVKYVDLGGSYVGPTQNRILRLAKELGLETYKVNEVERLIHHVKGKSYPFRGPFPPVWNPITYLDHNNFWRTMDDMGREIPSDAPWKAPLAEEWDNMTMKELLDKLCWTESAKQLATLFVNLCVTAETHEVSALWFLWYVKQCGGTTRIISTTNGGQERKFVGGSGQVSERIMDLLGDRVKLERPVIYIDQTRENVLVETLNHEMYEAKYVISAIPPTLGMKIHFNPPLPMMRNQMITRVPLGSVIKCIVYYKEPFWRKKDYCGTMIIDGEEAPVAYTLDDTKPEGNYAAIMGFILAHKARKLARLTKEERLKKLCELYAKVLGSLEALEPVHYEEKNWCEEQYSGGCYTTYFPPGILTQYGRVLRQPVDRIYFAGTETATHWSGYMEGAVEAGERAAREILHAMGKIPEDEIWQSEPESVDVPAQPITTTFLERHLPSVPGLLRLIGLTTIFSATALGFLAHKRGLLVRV

[11] = tested on: Caco-2 / P-gp; assay: Caco-2 two-way permeability / P-gp substrate; settings: Caco-2, second of two values given 'respectively'
[12] = tested on: MDCK / BCRP; assay: BCRP-MDCK two-way permeability / BCRP substrate
[13] = tested on: APP/PS1 transgenic (Tg) mouse; assay: Behavior in APP/PS1 transgenic mice, preventative paradigm
[14] = 2.5 mg/kg, oral, daily, 8 weeks to 3–4 months of age

In the case of `CN1CCN(c2cc(-c3ccncc3)c(-c3ccc4ccccc4c3)nn2)CC1` [MW150, 6-(4-Methylpiperazin-1-yl)-3-(naphthalen-2-yl)-4-(pyridin-4-yl)pyridazine], the “functional GPCR off-target activity” value [1] is reported as “no agonist or antagonist activity; also recorded: negative”, the chemical stability [2] is reported as “chemically stable; also recorded: stable at pH (1–13), 24 h, 37 °C” and the “adverse pharmacology, clinical observation” value [3] is reported as “no differences or adverse events were detected”. It also gave a half-life [4] greater than 180 min, a half-life at 1 μM [5] of 43 ± 4 min and a microsomal CLint at 1 μM [5] of 20 µL/min/mg. The Papp A→B at 2 h, 5 μM [6] was 33.5 ×10⁻⁶ cm/s, the Papp B→A at 2 h, 5 μM [6] was 31.2 ×10⁻⁶ cm/s and the recovery [6] was 71%. The Papp A→B at 2 h, 5 μM [7] was 20.7 ×10⁻⁶ cm/s, the Papp B→A at 2 h, 5 μM [7] was 25.1 ×10⁻⁶ cm/s and the recovery [7] was 66%. For the same compound, the AMES test [8] was “negative”, the MAO-A inhibition [9] was “negative” and the MAO-B inhibition [10] was “negative”. The “percent recovery, second value” [11] was 61%, the MDCK permeability classification [12] was “high cell permeability; also recorded: highly permeable” and the “percent recovery, second value” ([12]; MDCK, second of two values given 'respectively') was 67%. For the same compound, the BCRP substrate status ([12]; effect of 10 μM Ko143 on bidirectional flux) was “not a substrate; also recorded: not BCRP substrate”, the “RAWM (spatial memory)” value [13, 14] was “improved; also recorded: suppression of the deficits” and the “contextual fear memory (associative memory)” value [13, 14] was “improved; also recorded: suppression of the deficits”. The “dose dependence of behavior end points” value ([13]; Figure S2) was “dose dependent”, the “performance of WT mice” value ([13]; WT littermates, 2.5 mg/kg oral daily) was “did not affect” and the sensory threshold ([13]; control behavior) was “No difference”. The visible platform task ([13]; control behavior) was “did not influence; also recorded: No difference”, the cued fear memory ([13]; control behavior, hippocampus-independent) was “no effect; also recorded: No difference” and the open field tests ([13]; control behavior, locomotor activity and anxiety) was “did not influence; also recorded: No difference”.
